These results are taken from patent US10329304B2, “Compounds and methods for inhibition of hedgehog signaling and phosphodiesterase” (Vanderbilt University, priority 2014, dated 2019).

“Also recorded” adds a separate entry of the source. Read-outs that look alike come from different tables or passages of the source.

The test system of data set [1] is Hedgehog signaling (TM3-Gli-Luc). Briefly: TM3-Gli-Luc luciferase reporter assay stimulated with 20 nM SAG. In kind it is cell-based. In short, it runs like this:
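TM3-Gli-Luc cells on 0.1% gelatin in DMEM/F12 with 2.5% FBS, treated 48 h with compound plus 20 nM SAG. Steady-Glo luminescence normalized to CellTiter-Glo viability, DMSO-only (no SAG) background subtracted, percent of SAG control. EC50 averaged from ≥2 independent days ±SEM.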

The next data set has as its system TM3-Gli-Luc cells. Briefly: TM3-Gli-Luc cell viability (Cell Titer Glo, LD50). In kind it is cell-based. How it is done:
On the day of cell plating, 96-well plates were coated with 50 μL/well of sterile 0.1% gelatin for 5 minutes then aspirated and replaced with 50 μL/well of TM3 Culture Medium. TM3-Gli-Luc cells were seeded at a density of 5,000 cells/well in TM3 Culture Medium and incubated for 24 hours. A master mix of 20 nM SAG in TM3Luc Medium was prepared, and small molecule solutions were prepared by adding the desired amount of compound from 10 mM DMSO stock to TM3Luc Medium containing 20 nM SAG. Negative control was prepared by adding an equi-volume amount of DMSO as compared to small molecule treated conditions to TM3Luc Medium not containing SAG. Cell plating medium was aspirated and replaced with 100 μL/well of prepared small molecule-containing media, and plates were incubated for 48 hours before proceeding to luciferase activity and cell viability reading.
TM3Luc Medium from compound treated plates was aspirated and replaced with 82 μL/well of Glo Lysis Buffer (Promega, Madison, Wis., USA), and plates were shaken at 300 rpm and room temperature for 12 minutes. Lysate was split between two white 96-well plates, 45 μL/well and 25 μL/well for luciferase reading and cell viability respectively. For luciferase activity monitoring, 45 μL/well of Steady Glo (Promega, Madison, Wis., USA) was added to 45 μL/well of cell lysate, incubated at room temperature for 5 minutes, then luminescence was measured on a Turner Biosystems Modulus Microplate Reader (Sunnyvale, Calif., USA) with an integration time of 0.5 seconds. For cell viability measurement, 25 μL/well of Cell Titer Glo (Promega, Madison, Wis., USA) (prepared by 1:10 dilution with Glo Lysis Buffer) was added to 25 μL/well of cell lysate, incubated at room temperature for 5 minutes, then luminescence was measured as above.
All raw data was divided by the average of positive control cell titer data to arrive at percent cells remaining compared to positive control. […] At least two independent assays tested on separate days were averaged to provide LD50±standard error of the mean.
In general terms: In ATP-based viability assays light output follows the ATP content of the culture.

In the next data set the test system is Gli1 transcription. The data set can be described thus: Sufu−/− mouse embryonic fibroblasts qRT-PCR. As to conditions: Gli1 and Ptch1. It is filed as cell-based. From the text: In light of EGM1's ability to halt Hh transcriptional activity at a node downstream of the negative regulator Sufu, and thus also downstream of Smo, we sought to confirm mode of action retention with our most promising analogs. Therefore, we employed Sufu−/− mouse embryonic fibroblasts (MEF) that display constitutively active transcription of Hh target genes Gli1 and Ptch1 and monitored the ability of our optimized analogs to repress signaling via quantitative reverse transcription-PCR (qRT-PCR). […] We then evaluated improved analogs from multiple structural classes including those from Table 1 with cyclohexylthiophene cores as well as from Table 13 with structurally distinct core modifications.
Sufu^−/− cells were seeded into 12-well plates at a density of 100,000 cells/well in D10 FBS and incubated for 24 hours. Small molecule solutions were prepared by adding the desired amount of compound from 10 mM DMSO stock to D0.5 FBS. Negative control was prepared by adding an equi-volume amount of DMSO to D0.5 FBS as compared to small molecule treated conditions. Cell plating medium was aspirated and replaced with 1 mL of prepared small molecule-containing media, and plates were incubated for 24 hours before proceeding to RNA isolation.
Cells were washed 1× with 1× phosphate-buffered saline (PBS) then RNA was isolated using the Qiagen RNeasy Mini Kit (Qiagen, Germantown, Md., USA) according to the manufacturer's protocol, eluting RNA from the spin column with 30 μL of RNase-free water. RNA was placed on ice and immediately subjected to reverse transcription. Remaining RNA was stored at −80° C.
Reverse transcription polymerase chain reaction (RT-PCR) was performed with the Applied Biosystems High Capacity cDNA Reverse Transcription Kit (ThermoFisher Scientific, Waltham, Mass., USA) using an Eppendorf MasterCycler. Each 20 μL reaction contained 0.5 μg of total RNA, 2 μL of 10×RT Buffer, 0.8 μL of 25×dNTP Mix (100 mM), 2 μL of 10×RT Random Primers, 1 μL of MultiScribe® Reverse Transcriptase (50 U/μL), 1 μL of Recombinant RNasin® Ribonuclease Inhibitor (40 U/μL) (Promega, Madison, Wis., USA), and nuclease-free water. Reverse transcription was performed with the following program: 25° C. for 10 minutes, 37° C. for 120 minutes, and 85° C. for 5 minutes. The cDNA was subjected to quantitative real-time PCR (Q-PCR) or stored at −20° C.
Quantitative real-time PCR was performed on an Applied Biosystems 7900 HT Fast Real Time PCR System in 384-well format. Each cDNA sample was assayed in triplicate with both probe of interest and control probe. Master mixes for each probe were prepared corresponding to 10 μL of Applied Biosystems TaqMan Universal PCR Master Mix (ThermoFisher Scientific, Waltham, Mass., USA), 1 μL of primer, and nuclease-free water corresponding to a volume providing 20 μL reactions when loading an average of 50 ng of cDNA. Quantitative real-time PCR was run with the following thermal cycling protocol: 50° C. for 2 min., 95° C. for 10 min., and 40 cycles of 95° C. for 15 seconds, 60° C. for 1 min., then fluorescence reading. The following FAM probes were purchased from Life Technologies (Carlsbad, Calif., USA): mouse GAPDH, Mm99999915_g1; mouse Gli1, Mm00494646_g1; mouse Ptch1, Mm01306905_m1.
Quantitative real-time PCR data for Hh signaling inhibition was quantitated using the ΔΔCt method. Control probe values were subtracted from probe of interest values to arrive at the ΔCt value. The ΔCt value was transformed by 2-^ΔCt to arrive at the ΔΔCt value. All ΔΔCt values were divided by the average negative control ΔΔCt value to provide percent Hh signaling activity. Percent inhibition values were derived by calculating the inverse of percent activity. Data is reported as mean±standard error of the mean (SEM), representing at least two biological replicates, each quantitated in triplicate.

Data set [2] in a line: Lipophilic efficiency (LipE = pEC50 − cLogP) and cLogP. How it is done: Therefore, we prioritized phenotypic analog evaluation in the Gli-responsive luciferase reporter line TM3-Gli-Luc stimulated with 20 nM Smo agonist (SAG) while concurrently monitoring non-specific cellular toxicity. Additionally, lipophilic efficiency (LipE), a concurrent readout of a compound's potency (pEC50) and lipophilicity (cLogP) derived by subtracting the latter from the former, was utilized to optimize solubility properties (Table 12B), allowing for straightforward tracking of compounds with improvements in both parameters.

The target in data set [3] is T1, Smo cyclopamine (Cyc) binding site (Homo sapiens, UniProt Q99835).
T1 construct: expressed in transfected cells; host or cells: HEK-293T
T1 sequence (Q99835 28-787): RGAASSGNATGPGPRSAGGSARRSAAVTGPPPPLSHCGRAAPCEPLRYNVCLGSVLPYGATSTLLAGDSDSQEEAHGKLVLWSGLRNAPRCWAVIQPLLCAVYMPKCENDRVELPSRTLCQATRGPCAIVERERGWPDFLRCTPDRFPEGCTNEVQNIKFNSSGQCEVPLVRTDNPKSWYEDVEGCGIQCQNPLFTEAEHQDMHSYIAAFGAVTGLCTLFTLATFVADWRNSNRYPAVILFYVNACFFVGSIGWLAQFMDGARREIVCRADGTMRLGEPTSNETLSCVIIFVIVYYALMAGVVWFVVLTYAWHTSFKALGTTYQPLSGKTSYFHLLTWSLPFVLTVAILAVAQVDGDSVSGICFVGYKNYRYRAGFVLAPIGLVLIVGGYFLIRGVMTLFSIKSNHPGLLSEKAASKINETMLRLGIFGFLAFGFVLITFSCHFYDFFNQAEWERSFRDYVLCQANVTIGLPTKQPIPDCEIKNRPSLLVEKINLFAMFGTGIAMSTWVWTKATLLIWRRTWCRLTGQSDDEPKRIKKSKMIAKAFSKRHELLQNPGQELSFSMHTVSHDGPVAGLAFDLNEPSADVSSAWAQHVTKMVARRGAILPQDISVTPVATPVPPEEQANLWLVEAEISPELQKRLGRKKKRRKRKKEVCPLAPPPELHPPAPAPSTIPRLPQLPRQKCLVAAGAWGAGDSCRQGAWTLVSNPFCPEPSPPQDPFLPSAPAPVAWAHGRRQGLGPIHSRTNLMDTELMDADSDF
The data set can be described thus: BODIPY-cyclopamine competition in HEK-293T cells overexpressing Smo. As to conditions: KAAD-Cyc 200 nM; analogs at 10- to 20-fold their EC50s. How it is done:
Thus, HEK-293T cells overexpressing Smo were concurrently treated with 5 nM BODIPY-Cyc and molecules of interest.

Another data set concerns the target PDE4D (Homo sapiens, UniProt Q08499). The data set can be described thus: PDE4 inhibition assay (PDE4D IC50). It is filed as biochemical. As to conditions: mean ± SEM, normalized to DMSO; read-out: PDE4D IC50. Summed up:
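PDE4D incubated 60 min at room temperature in duplicate with 100 nM FAM-cAMP and compound (1% DMSO final) in Tris-HCl pH7.4, 10 mM MgCl2, 0.05% Tween 20. FAM-AMP detected with binding-agent nanobeads after a further 60 min, read at 485/528 nm.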

In the next data set the target is consensus PDE4D sequence (Homo sapiens, UniProt Q08499). Briefly: PDE4D inhibition (consensus PDE4D sequence). It is filed as biochemical.
Chain of consensus PDE4D sequence (Q08499 whole entry): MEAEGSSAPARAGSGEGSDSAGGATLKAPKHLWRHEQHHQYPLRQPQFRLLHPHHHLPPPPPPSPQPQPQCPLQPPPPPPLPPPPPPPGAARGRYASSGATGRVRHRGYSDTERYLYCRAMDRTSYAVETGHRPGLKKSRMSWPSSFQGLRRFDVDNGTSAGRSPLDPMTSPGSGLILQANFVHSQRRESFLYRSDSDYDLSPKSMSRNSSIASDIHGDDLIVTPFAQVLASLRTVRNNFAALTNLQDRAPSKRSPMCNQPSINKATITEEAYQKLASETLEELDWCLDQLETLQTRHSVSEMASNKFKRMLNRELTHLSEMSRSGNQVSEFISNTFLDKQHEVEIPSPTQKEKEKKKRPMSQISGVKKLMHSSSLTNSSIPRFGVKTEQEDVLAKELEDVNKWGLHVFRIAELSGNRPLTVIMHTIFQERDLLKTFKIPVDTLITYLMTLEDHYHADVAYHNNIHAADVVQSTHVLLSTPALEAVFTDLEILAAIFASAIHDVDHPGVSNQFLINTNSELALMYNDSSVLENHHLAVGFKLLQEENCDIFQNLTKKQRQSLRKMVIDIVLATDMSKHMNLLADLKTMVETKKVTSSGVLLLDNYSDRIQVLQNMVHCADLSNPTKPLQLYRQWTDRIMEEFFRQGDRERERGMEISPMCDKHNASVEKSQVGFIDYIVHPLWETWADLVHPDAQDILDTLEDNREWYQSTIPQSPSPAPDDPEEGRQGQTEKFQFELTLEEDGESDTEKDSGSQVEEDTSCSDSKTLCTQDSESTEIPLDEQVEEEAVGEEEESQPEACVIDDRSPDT
The next data set concerns IFT88 localization. The data set can be described thus: IFT88 immunostaining in NIH3T3 cells. As to conditions: EGM 5 μM, ciliobrevin D 100 μM. It is filed as cell-based. The source says:
To investigate whether the disruption of the cilium-to-nucleus trafficking of Gli2 by eggmanone was due to a general defect in the retrograde transport within the primary cilium, we compared the effect of the cytoplasmic dynein motor inhibitor ciliobrevin D with the effect of eggmanone on the intraflagellar transport protein 88 (IFT88) trafficking^19. […] Thus, the effects of eggmanone on Gli2 trafficking is specific, rather than an indirect consequence of a global defect in ciliary transport machinery.

[4] abbreviates: TM3-Gli-Luc reporter line stimulated with 20 nM SAG, mean ± SEM, Table 14, read-out: TM3-Gli-Luc EC50.
Where [5] appears, read: TM3-Gli-Luc reporter line stimulated with 20 nM SAG, mean ± SEM, Table 13, read-out: TM3-Gli-Luc EC50.
Where [6] appears, read: calculated as pEC50 - cLogP (Molinspiration Cheminformatics), Table 13.

Chain of PDE4D (Q08499 whole entry): as above
Source text for consensus PDE4D sequence: First, the contribution of PDE4 was revisited as a potential explanation for the observed mechanistic drift.

`C=C(C)Cn1c(SCC(=O)N2CCCCC2C)nc2sc3c(c2c1=O)CCCC3` (stereo not shown) [Formula 9m]: in data set [1], the “reduction in potency versus EGM1” value is listed as about 2 fold. Further, the EC50 in data set [1] (20 nM SAG, mean ± standard error of the mean, read-out: TM3-Gli-Luc EC50) stood at 2320 ± 730 nM; in data set [1] (setting [4]), 2320 ± 730 nM. For the same compound, the LD50 with TM3-Gli-Luc cells is 16.7 µM. In the data set on TM3-Gli-Luc cells (mean ± standard error of the mean), the “TM3-Gli-Luc LD50” value was found to be 16.7 ± 0.25 µM. Further, the “Transcriptional inhibition in the Sufu−/− cell line, in words” value (shortened to “Transcriptional inhibition”) with Gli1 transcription was “general ability to inhibit transcriptional activity”. Besides, the LipE in data set [2] (Calculated as pEC50 - cLogP, Molinspiration Cheminformatics) is listed as 0.94; in data set [2] (pEC50 - cLogP, Table 14) it was 0.94.
`O=C(CSc1nc2ccccc2c(=O)n1C1CC1)c1cccs1` [Formula 14b]: the “Hh inhibitory activity / potency in words” value in data set [1] (20 nM SAG) is on record as “potency improvements over EGM1”. Further, the concentration for a half-maximal effect (EC50) is 685 nM in data set [1] (20 nM SAG, read-out: EC50); 685 ± 20 nM in data set [1] (setting [5]); 685 ± 20 nM in data set [1] (setting [4]). Also, the “Transcriptional inhibition” value in the data set with Gli1 transcription is on record as “lack of Sufu−/− transcriptional inhibition”. The “Displacement of BODIPY-cyclopamine (5 nM) from Smo” value (from here on “Displacement of BODIPY-cyclopamine”) in data set [3] was “do not displace the binding of BODIPY-cyclopamine; also recorded: failed to compete for the Smo binding site”. In addition, the LipE is listed as 2.78 in data set [2] (setting [6]) and 2.78 in data set [2] (pEC50 - cLogP, Table 14).
`O=C(CSc1nc2sccc2c(=O)n1C1CC1)c1cccs1` [Formula 19b]: the concentration for a half-maximal effect (EC50) in data set [1] (setting [5]) and in data set [1] (setting [4]) was 933 ± 100 nM throughout. Also, in the data set with Gli1 transcription, the “Transcriptional inhibition” value was “lack of Sufu−/− transcriptional inhibition”. The “Displacement of BODIPY-cyclopamine” value in data set [3] is “do not displace the binding of BODIPY-cyclopamine; also recorded: failed to compete for the Smo binding site”. For the same compound, the LipE in data set [2] (setting [6]) is recorded as 2.89; in data set [2] (pEC50 - cLogP, Table 14) it was 2.89.
Consider `O=c1c2ccsc2nc(SCC(O)c2ccccc2)n1C1CC1` (stereo not shown) [Formula 20a], for which the IC50 at PDE4D stood at 6070 ± 1500 nM. For the same compound, on consensus PDE4D sequence, the “PDE4D inhibition in words” value is on record as “only modest ICs against PDE4D”. For the same compound, the “Transcriptional inhibition” value in the data set on Gli1 transcription is “lack of Sufu−/− transcriptional inhibition”. Besides, the “Displacement of BODIPY-cyclopamine” value in data set [3] is recorded as “do not displace the binding of BODIPY-cyclopamine; also recorded: failed to compete for the Smo binding site”. For the same compound, in data set [2] (pEC50 - cLogP, Table 14), the LipE was 3.41.
With `O=C(CSc1nc2sccc2c(=O)n1C1CC1)c1ccccc1` [Formula 19c], at consensus PDE4D sequence, the “PDE4D inhibition in words” value is on record as “only modest ICs against PDE4D”. The EC50 in data set [1] (setting [5]) and in data set [1] (setting [4]) was 82 ± 10 nM each time. For the same compound, the Non-specific cellular toxicity result in the data set with TM3-Gli-Luc cells is “no non-specific cellular toxicity”. In addition, the “Transcriptional inhibition” value with Gli1 transcription was “lack of Sufu−/− transcriptional inhibition”. Besides, the “Displacement of BODIPY-cyclopamine” value in data set [3] is recorded as “do not displace the binding of BODIPY-cyclopamine; also recorded: failed to compete for the Smo binding site”. In addition, the LipE is given as 3.84 in data set [2] (setting [6]) and 3.84 in data set [2] (pEC50 - cLogP, Table 14).
Regarding `N#CC(=C(O)c1ccc(Cl)cc1Cl)c1nc2cc(Cl)ccc2c(=O)[nH]1` [Ciliobrevin D, reference compound], the “IFT88 localization in the cilium” value in the data set on IFT88 localization is “perturbed the localization of IFT88 in the cilium”; in the data set with IFT88 localization (listed as ciliobrevin D) it was “severely disrupted the IFT88 localization in the cilium”.

What is called EC50 is the concentration at which the effect is half-maximal. The IC50 is the midpoint of a concentration-inhibition curve.
